ChEMBL document CHEMBL4699561, “Cytotoxic Germacranolides from the Whole Plant of Carpesium minus” (J Nat Prod, 2020)

Columns and labels:
[1] = test system: MDA-MB-231; assay: Cytotoxicity against human MDA-MB-231 cells assessed as reduction in cell viability by MTT assay; assay type: functional, cell-based
[2] = test system: HCT-116; assay: Cytotoxicity against human HCT-116 cells assessed as reduction in cell viability by MTT assay; assay type: functional, cell-based
[3] = test system: A549; assay: Cytotoxicity against human A549 cells assessed as reduction in cell viability by MTT assay; assay type: functional, cell-based
[4] = test system: HCT-116; assay: Induction of apoptosis in human HCT-116 cells assessed as viable cells at 4 uM after 24 hrs by Annexin V-FITC/propidium iodide staining based flow cytometric analysis (reference value: 87.8%); assay type: functional; conditions: read-out: Activity
[5] = test system: HCT-116; assay: Induction of apoptosis in human HCT-116 cells assessed as early apoptotic cells at 8 uM after 24 hrs by Annexin V-FITC/propidium iodide staining based flow cytometric analysis (reference value: 5.3%); assay type: functional
[6] = test system: HCT-116; assay: Induction of apoptosis in human HCT-116 cells assessed as late apoptotic cells at 16 uM after 24 hrs by Annexin V-FITC/propidium iodide staining based flow cytometric analysis (reference value: 6.5%); assay type: functional
[7] = test system: HCT-116; assay: Induction of apoptosis in human HCT-116 cells assessed as necrotic cells at 8 uM after 24 hrs by Annexin V-FITC/propidium iodide staining based flow cytometric analysis (reference value: 0.4%); assay type: functional
[8] = test system: HCT-116; assay: Induction of apoptosis in human HCT-116 cells assessed as viable cells at 8 uM after 24 hrs by Annexin V-FITC/propidium iodide staining based flow cytometric analysis (reference value: 87.8%); assay type: functional; conditions: read-out: Activity
[9] = test system: HCT-116; assay: Induction of apoptosis in human HCT-116 cells assessed as increase in cleaved-PARP protein expression after 24 hrs by Western blot analysis; assay type: functional, cell-based; conditions: dose microM 4-16, time 24.0 hrs
[10] = test system: HCT-116; assay: Induction of apoptosis in human HCT-116 cells assessed as viable cells at 16 uM after 24 hrs by Annexin V-FITC/propidium iodide staining based flow cytometric analysis (reference value: 87.8%); assay type: functional; conditions: read-out: Activity
[11] = test system: HCT-116; assay: Induction of apoptosis in human HCT-116 cells assessed as necrotic cells at 4 uM after 24 hrs by Annexin V-FITC/propidium iodide staining based flow cytometric analysis (reference value: 0.4%); assay type: functional
[12] = test system: HCT-116; assay: Induction of apoptosis in human HCT-116 cells assessed as early apoptotic cells at 4 uM after 24 hrs by Annexin V-FITC/propidium iodide staining based flow cytometric analysis (reference value: 5.3%); assay type: functional
[13] = test system: HCT-116; assay: Induction of apoptosis in human HCT-116 cells assessed as late apoptotic cells at 4 uM after 24 hrs by Annexin V-FITC/propidium iodide staining based flow cytometric analysis (reference value: 6.5%); assay type: functional
[14] = test system: HCT-116; assay: Induction of apoptosis in human HCT-116 cells assessed as increase in cleaved-caspace-7 protein expression after 24 hrs by Western blot analysis; assay type: functional, cell-based; conditions: dose microM 4-16, time 24.0 hrs
[15] = test system: HCT-116; assay: Induction of apoptosis in human HCT-116 cells assessed as early apoptotic cells at 16 uM after 24 hrs by Annexin V-FITC/propidium iodide staining based flow cytometric analysis (reference value: 5.3%); assay type: functional
[16] = test system: HCT-116; assay: Induction of apoptosis in human HCT-116 cells assessed as increase in cleaved-caspace-3 protein expression after 24 hrs by Western blot analysis; assay type: functional, cell-based; conditions: dose microM 4-16, time 24.0 hrs
[17] = test system: HCT-116; assay: Induction of apoptosis in human HCT-116 cells assessed as late apoptotic cells at 8 uM after 24 hrs by Annexin V-FITC/propidium iodide staining based flow cytometric analysis (reference value: 6.5%); assay type: functional
[18] = test system: HCT-116; assay: Induction of apoptosis in human HCT-116 cells assessed as apoptotic cells after 24 hrs by Annexin V-FITC/propidium iodide staining based flow cytometric analysis; assay type: functional, cell-based; conditions: dose microM 4-16, time 24.0 hrs
[19] = test system: HCT-116; assay: Induction of apoptosis in human HCT-116 cells assessed as necrotic cells at 16 uM after 24 hrs by Annexin V-FITC/propidium iodide staining based flow cytometric analysis (reference value: 0.4%); assay type: functional

C=C1C(=O)O[C@@H]2[C@@H](OC(=O)[C@@H](C)CC)[C@@](C)(O)C[C@H]3C[C@@H](C)[C@@](O)(C[C@@H]12)O3
IC50 [1]: 23.7 µM
IC50 [2]: 14 µM
IC50 [3]: 24.3 µM

C=C1C(=O)O[C@@H]2[C@@H](OC(=O)[C@H](C)CC)[C@@](C)(O)C[C@H]3C[C@@H](C)[C@@](O)(C[C@@H]12)O3
IC50 [1]: 48.9 µM
IC50 [2]: 21.4 µM
IC50 [3]: 37.6 µM

C=C1C(=O)O[C@@H]2[C@@H](OC(=O)[C@H](C)CC)[C@@](C)(O)CCC[C@@H](C)C(=O)C[C@@H]12
IC50 [1]: 10.6 µM
IC50 [2]: 5.3 µM
IC50 [3]: 24.7 µM

C=C1C(=O)O[C@@H]2[C@@H](OC(=O)C(C)C)[C@@](C)(O)CCC[C@@H](C)C(=O)C[C@@H]12
IC50 [1]: 11.6 µM
IC50 [2]: 8.5 µM
IC50 [3]: 26.6 µM

C=C1C(=O)O[C@@H]2[C@@H](OC(=O)/C(C)=C\C)[C@@](C)(O)CCC[C@@H](C)C(=O)C[C@@H]12
IC50 [1]: 4.7 µM
IC50 [2]: 3.2 µM
IC50 [3]: 14.1 µM

C=C1C(=O)O[C@@H]2[C@@H](OC(=O)C(C)C)[C@@](C)(O)C[C@H]3C[C@@H](C)[C@@](O)(C[C@@H]12)O3
IC50 [1]: > 50 µM
IC50 [2]: 20.2 µM
IC50 [3]: > 50 µM

C=C1C(=O)O[C@@H]2[C@@H](OC(=O)/C(C)=C\C)[C@@](C)(O)C[C@H]3C[C@@H](C)[C@@](O)(C[C@@H]12)O3
IC50 [1]: 23.4 µM
IC50 [2]: 17.8 µM
IC50 [3]: 17.3 µM

C=C1C(=O)O[C@@H]2[C@@H](OC(=O)CC(C)C)[C@@](C)(O)CCC[C@@H](C)C(=O)C[C@@H]12
IC50 [1]: 6.1 µM
viability at 4 µM [4]: 87.1%
Activity [5]: 7.3%
Activity [6]: 15%
Activity [7]: 0.6%
viability at 8 µM [8]: 83.8%
Activity [9]: Dose-dependent effect
viability at 16 µM [10]: 73.9%
IC50 [2]: 3.7 µM
Activity [11]: 0.4%
Activity [12]: 5.2%
Activity [13]: 7.3%
Activity [14]: Dose-dependent effect
Activity [15]: 10.5%
Activity [16]: Dose-dependent effect
Activity [17]: 8.3%
Activity [18]: Dose-dependent effect
Activity [19]: 0.6%
IC50 [3]: 8.4 µM

C=C1C(=O)O[C@@H]2[C@@H](OC(=O)CC(C)C)[C@@](C)(O)C[C@H]3C[C@@H](C)[C@@](O)(C[C@@H]12)O3
IC50 [1]: 27.9 µM
IC50 [2]: 17.2 µM
IC50 [3]: 24.5 µM

C=C1C(=O)O[C@@H]2[C@@H](OC(=O)[C@@H](C)CC)[C@@](C)(O)CCC[C@@H](C)C(=O)C[C@@H]12
IC50 [1]: 14.6 µM
IC50 [2]: 6.7 µM
IC50 [3]: 31.9 µM
